Data reported in patent US7335669B2, “Use of dihydroquinoline to aid in increasing milk production and feed utilization” (Novus International, Inc., priority 2002, dated 2008).

What was measured:
lactating dairy cows = experiment: Example 2: switch-over pen trial, ethoxyquin 65 ppm in feed for three weeks, approximately 2400 lactating dairy cows; type: in vivo
Text: Approximately 2400 lactating dairy cows were divided into two treatment groups of four pens per group. The cows in one of the two groups were fed ethoxyquin (at a concentration of 65 ppm by weight based on the weight of the total feed fed to the cows) for three weeks, with the four pens of the other group serving as controls. For the next two weeks, neither of the groups was fed ethoxyquin. The pens were then switched so that the previous control group was fed ethoxyquin (at a concentration of 65 ppm by weight based on the weight of the total feed fed to the cows) for three weeks. Milk production and feed intake were measured and feed efficiencies were calculated. The following table reports the means and pooled SEM results after correction for pen effects (wherein “Treated” refers to the cows receiving the ethoxyquin): […]

[1] = poultry and lambs, dietary ethoxyquin; cited from earlier work
cows = experiment: Example 1: two-week feeding regimen at four ethoxyquin concentration levels, twenty-four cows; type: in vivo
Text: Each of twenty-four cows was randomly assigned to a feeding regimen of one of four concentration levels of ethoxyquin (0 ppm, 50 ppm, 100 ppm, and 150 ppm by weight on an as fed basis) for a two-week treatment period. Data were collected before and after the feeding regimen. The results were as follows, wherein the ethoxyquin concentration (“Ethox. Dose”) is presented in ppm by weight, on an as fed basis and “TMR” represents the total mixed ration consumed by the cows in pounds per day: […]

[2] = about 125 to about 150 ppm by weight on DMI basis in diet of dairy cattle; cited from earlier work
broilers and layers = settings: cited from earlier work
[3] = Detection of ethoxyquin in milk from cattle treated by the method; type: in vivo
Text: Of course, measurement of chemical levels has limitations. […] In any event, the level of ethoxyquin in the milk produced according to this invention certainly is less than 0.1 ppm by weight.

[4] = ethoxyquin 65 ppm by weight of total feed, three weeks, mean after correction for pen effects
[5] = ethoxyquin 50 ppm by weight as fed basis
[6] = ethoxyquin 100 ppm as fed basis
[7] = ethoxyquin 100 ppm by weight as fed basis
[8] = ethoxyquin 150 ppm as fed basis
[9] = ethoxyquin 150 ppm by weight as fed basis

Ethoxyquin detected in milk ([3]; milk from cattle treated by the method of the invention): no ethoxyquin has been detected
Level of ethoxyquin in the milk ([3]; milk produced according to the invention): less than 0.1 ppm by weight
SMILES: CCOc1ccc2c(c1)C(C)=CC(C)(C)N2 [ethoxyquin, 6-ethoxy-1,2-dihydro-2,2,4-trimethylquinoline]
Difference in milk production, treated vs control (lactating dairy cows; ethoxyquin 65 ppm): little difference in milk production
Feed Efficiency As Fed Basis (lactating dairy cows; ethoxyquin 65 ppm by weight of total feed, three weeks, calculated from milk production and feed intake): 0.89
Feed Intake As Fed Basis (lactating dairy cows; [4]): 93.5 lbs./day
Feed Intake DMI Basis (lactating dairy cows; [4]): 60.3 lbs./day
Milk Production (lactating dairy cows; [4]): 83.4 lbs./day
Improvement in feed efficiency (pounds of milk produced per pounds of TMR intake) (lactating dairy cows; ethoxyquin 65 ppm vs control, printed as on a dry matter basis): 4.7%
Ethoxyquin in muscle tissue [1]: detected in the muscle tissue of poultry and lambs
Enhancement of milk production, comparison of concentrations (cows; 50 ppm vs 150 ppm by weight, as fed basis): 50 ppm has yielded greater enhancement of milk production than has 150 ppm
Feed Intake (as fed basis), TMR in First Week (cows; ethoxyquin 50 ppm as fed basis): 91 pounds per day
Milk Production Based on Feed Efficiency, Lbs. Milk / TMR in First Week (cows; ethoxyquin 50 ppm as fed basis): 0.87 lbs. Milk Produced/pounds TMR Intake
Feed Intake (as fed basis), TMR in Second Week (cows; ethoxyquin 50 ppm as fed basis): 91 pounds per day
Milk Production Based on Feed Efficiency, Lbs. Milk / TMR in Second Week (cows; ethoxyquin 50 ppm as fed basis): 0.91 lbs. Milk Produced/pounds TMR Intake
Milk Produced During First Week (cows; [5]): 79 lbs./day
Milk Produced During Second Week (cows; [5]): 82 lbs./day
Feed Intake (as fed basis), TMR in First Week (cows; [6]): 92 pounds per day
Milk Production Based on Feed Efficiency, Lbs. Milk / TMR in First Week (cows; [6]): 0.80 lbs. Milk Produced/pounds TMR Intake
Feed Intake (as fed basis), TMR in Second Week (cows; [6]): 91 pounds per day
Milk Production Based on Feed Efficiency, Lbs. Milk / TMR in Second Week (cows; [6]): 0.79 lbs. Milk Produced/pounds TMR Intake
Milk Produced During First Week (cows; [7]): 74 lbs./day
Milk Produced During Second Week (cows; [7]): 72 lbs./day
Feed Intake (as fed basis), TMR in First Week (cows; [8]): 92 pounds per day
Milk Production Based on Feed Efficiency, Lbs. Milk / TMR in First Week (cows; [8]): 0.76 lbs. Milk Produced/pounds TMR Intake
Feed Intake (as fed basis), TMR in Second Week (cows; [8]): 92 pounds per day
Milk Production Based on Feed Efficiency, Lbs. Milk / TMR in Second Week (cows; [8]): 0.80 lbs. Milk Produced/pounds TMR Intake
Milk Produced During First Week (cows; [9]): 70 lbs./day
Milk Produced During Second Week (cows; [9]): 74 lbs./day
Ethoxyquin residue in milk [2]: appearance of ethoxyquin in the fat of the resulting milk
Effectiveness relative to alpha-tocopherol acetate (broilers and layers; broiler study, 150 ppm ethoxyquin in feed): as effective as about 15 ppm alpha-tocopherol acetate
Lipid oxidation in muscle tissues (broilers and layers; dietary ethoxyquin, broilers 75 to 150 ppm, layers 500 ppm in feed): prevent lipid oxidation in muscle tissues in broilers and layers
